Results taken from PubChem BioAssay (NCI).
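Five concentrations, 48 hours, 96-well plates. GI50 is the concentration that inhibits growth by half. TGI: concentration producing complete growth inhibition.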

Columns and labels:
Test in all cases: inhibition of tumour cell growth, NCI panel, 48 h
MALME-3M melanoma = test system: MALME-3M melanoma
OVCAR-4 ovarian = test system: OVCAR-4 ovarian
UACC-62 melanoma = test system: UACC-62 melanoma
IGROV1 ovarian = test system: IGROV1 ovarian
HT29 colon = test system: HT29 colon
SN12C renal = test system: SN12C renal
HL-60(TB) leukemia = test system: HL-60(TB) leukemia
CCRF-CEM leukemia = test system: CCRF-CEM leukemia
SF-539 CNS = test system: SF-539 CNS
NCI-H460 lung = test system: NCI-H460 lung
NCI/ADR-RES ovarian = test system: NCI/ADR-RES ovarian
NCI-H522 lung = test system: NCI-H522 lung
NCI-H226 lung = test system: NCI-H226 lung
HOP-92 NSCLC = test system: HOP-92 NSCLC
SK-MEL-28 melanoma = test system: SK-MEL-28 melanoma
PC-3 prostate = test system: PC-3 prostate
DU-145 prostate = test system: DU-145 prostate
HCC-2998 colon = test system: HCC-2998 colon
U251 CNS = test system: U251 CNS
LOX IMVI melanoma = test system: LOX IMVI melanoma
MDA-MB-468 breast = test system: MDA-MB-468 breast
MCF7 breast = test system: MCF7 breast
BT-549 breast = test system: BT-549 breast
SR leukemia = test system: SR leukemia
SNB-19 CNS = test system: SNB-19 CNS
HS 578T breast = test system: HS 578T breast
NCI-H23 lung = test system: NCI-H23 lung
OVCAR-5 ovarian = test system: OVCAR-5 ovarian
CAKI-1 renal = test system: CAKI-1 renal
SF-268 CNS = test system: SF-268 CNS
MOLT-4 leukemia = test system: MOLT-4 leukemia
M14 melanoma = test system: M14 melanoma
T-47D breast = test system: T-47D breast
SK-OV-3 ovarian = test system: SK-OV-3 ovarian
KM12 colon = test system: KM12 colon
A549 NSCLC = test system: A549 NSCLC
A498 renal = test system: A498 renal
786-0 renal = test system: 786-0 renal
K-562 leukemia = test system: K-562 leukemia
COLO 205 colon = test system: COLO 205 colon
SK-MEL-5 melanoma = test system: SK-MEL-5 melanoma
OVCAR-3 ovarian = test system: OVCAR-3 ovarian
HOP-62 NSCLC = test system: HOP-62 NSCLC
HCT-116 colon = test system: HCT-116 colon
TK-10 renal = test system: TK-10 renal
ACHN renal = test system: ACHN renal
RXF 393 renal = test system: RXF 393 renal
MDA-MB-435 = test system: MDA-MB-435
RPMI-8226 leukemia = test system: RPMI-8226 leukemia
SW-620 colon = test system: SW-620 colon
SF-295 CNS = test system: SF-295 CNS
OVCAR-8 ovarian = test system: OVCAR-8 ovarian
HCT-15 colon = test system: HCT-15 colon
EKVX NSCLC = test system: EKVX NSCLC

For `C[C@H]1[C@@H](CC(=O)N[C@@H](Cc2coc3ccccc23)B(O)O)O[C@@H]2OC3(C)CC[C@H]4[C@H](C)CC[C@@H]1[C@@]24OO3`, the GI50 (MALME-3M melanoma) was 1.07 µM, the TGI (MALME-3M melanoma) was 4.58 µM and the GI50 (OVCAR-4 ovarian) was 2.6 µM. The TGI (OVCAR-4 ovarian) was 68.5 µM, the GI50 (UACC-62 melanoma) was 1.06 µM and the TGI (UACC-62 melanoma) was 2.23 µM. It also gave a GI50 (IGROV1 ovarian) of 2.26 µM, a TGI (IGROV1 ovarian) of 9.3 µM and a GI50 (HT29 colon) of 1.55 µM. The TGI (HT29 colon) was 4.86 µM, the GI50 (SN12C renal) was 2.18 µM and the TGI (SN12C renal) was 10.6 µM. For the same compound, the GI50 (HL-60(TB) leukemia) was 0.177 µM, the TGI (HL-60(TB) leukemia) was 2.04 µM and the GI50 (CCRF-CEM leukemia) was 0.322 µM. It also gave a TGI (CCRF-CEM leukemia) of 5.38 µM, a GI50 (SF-539 CNS) of 1.05 µM and a TGI (SF-539 CNS) of 2.47 µM. It also gave a GI50 (NCI-H460 lung) of 2.46 µM, a TGI (NCI-H460 lung) of 12 µM and a GI50 (NCI/ADR-RES ovarian) of 8.06 µM. The TGI (NCI/ADR-RES ovarian) was 37.2 µM, the GI50 (NCI-H522 lung) was 0.493 µM and the TGI (NCI-H522 lung) was 1.81 µM. For the same compound, the GI50 (NCI-H226 lung) was 0.876 µM, the TGI (NCI-H226 lung) was 2.14 µM and the GI50 (HOP-92 NSCLC) was 1.34 µM. It also gave a TGI (HOP-92 NSCLC) of 4.09 µM, a GI50 (SK-MEL-28 melanoma) of 1.2 µM and a TGI (SK-MEL-28 melanoma) of 3.63 µM. The GI50 (PC-3 prostate) was 1.19 µM, the TGI (PC-3 prostate) was 18.8 µM and the GI50 (DU-145 prostate) was 5.47 µM. The TGI (DU-145 prostate) was 62.1 µM, the GI50 (HCC-2998 colon) was 1.23 µM and the TGI (HCC-2998 colon) was 2.3 µM. The GI50 (U251 CNS) was 2.14 µM, the TGI (U251 CNS) was 10.5 µM and the GI50 (LOX IMVI melanoma) was 0.892 µM. It also gave a TGI (LOX IMVI melanoma) of 1.99 µM, a GI50 (MDA-MB-468 breast) of 0.917 µM and a TGI (MDA-MB-468 breast) of 2.57 µM. It also gave a GI50 (MCF7 breast) of 0.969 µM, a TGI (MCF7 breast) of 15.6 µM and a GI50 (BT-549 breast) of 0.556 µM. The TGI (BT-549 breast) was 1.8 µM, the GI50 (SR leukemia) was 0.143 µM and the TGI (SR leukemia) was 0.677 µM. For the same compound, the GI50 (SNB-19 CNS) was 3.43 µM, the TGI (SNB-19 CNS) was over 71 µM and the GI50 (HS 578T breast) was 1.9 µM. It also gave a TGI (HS 578T breast) of 12 µM, a GI50 (NCI-H23 lung) of 1.62 µM and a TGI (NCI-H23 lung) of 7.44 µM. It also gave a GI50 (OVCAR-5 ovarian) of 1.65 µM, a TGI (OVCAR-5 ovarian) of 7.12 µM and a GI50 (CAKI-1 renal) of 3.63 µM. It also gave a TGI (CAKI-1 renal) of 21.9 µM, a GI50 (SF-268 CNS) of 3.04 µM and a TGI (SF-268 CNS) of over 71 µM. For the same compound, the GI50 (MOLT-4 leukemia) was 0.267 µM, the TGI (MOLT-4 leukemia) was 3.54 µM and the GI50 (M14 melanoma) was 1.33 µM. The TGI (M14 melanoma) was 3.86 µM, the GI50 (T-47D breast) was 0.749 µM and the TGI (T-47D breast) was 3.03 µM. It also gave a GI50 (SK-OV-3 ovarian) of 3.55 µM, a TGI (SK-OV-3 ovarian) of 13.4 µM and a GI50 (KM12 colon) of 1.98 µM. For the same compound, the TGI (KM12 colon) was 6.32 µM, the GI50 (A549 NSCLC) was 2.46 µM and the TGI (A549 NSCLC) was over 71 µM. For the same compound, the GI50 (A498 renal) was 2.28 µM, the TGI (A498 renal) was 9.8 µM and the GI50 (786-0 renal) was 2.84 µM. For the same compound, the TGI (786-0 renal) was 15.1 µM, the GI50 (K-562 leukemia) was 1.14 µM and the TGI (K-562 leukemia) was 13.8 µM. It also gave a GI50 (COLO 205 colon) of 1.89 µM, a TGI (COLO 205 colon) of 8.9 µM and a GI50 (SK-MEL-5 melanoma) of 1.13 µM. For the same compound, the TGI (SK-MEL-5 melanoma) was 2.22 µM, the GI50 (OVCAR-3 ovarian) was 1.26 µM and the TGI (OVCAR-3 ovarian) was 5.18 µM. It also gave a GI50 (HOP-62 NSCLC) of 2.26 µM, a TGI (HOP-62 NSCLC) of 8.31 µM and a GI50 (HCT-116 colon) of 0.783 µM. For the same compound, the TGI (HCT-116 colon) was 2.29 µM, the GI50 (TK-10 renal) was 1.64 µM and the TGI (TK-10 renal) was over 71 µM. It also gave a GI50 (ACHN renal) of 2.01 µM, a TGI (ACHN renal) of over 71 µM and a GI50 (RXF 393 renal) of 0.259 µM. For the same compound, the TGI (RXF 393 renal) was 1.12 µM, the GI50 (MDA-MB-435) was 0.287 µM and the TGI (MDA-MB-435) was 1.51 µM. It also gave a GI50 (RPMI-8226 leukemia) of 0.267 µM, a TGI (RPMI-8226 leukemia) of 1.42 µM and a GI50 (SW-620 colon) of 0.362 µM. For the same compound, the TGI (SW-620 colon) was 10.2 µM, the GI50 (SF-295 CNS) was 1.98 µM and the TGI (SF-295 CNS) was 7.69 µM. The GI50 (OVCAR-8 ovarian) was 2.08 µM, the TGI (OVCAR-8 ovarian) was 11.7 µM and the GI50 (HCT-15 colon) was 0.363 µM. For the same compound, the TGI (HCT-15 colon) was 4.29 µM, the GI50 (EKVX NSCLC) was 3.14 µM and the TGI (EKVX NSCLC) was 22.2 µM.
